pIC50: −log10 of the molar value.
Columns and labels:
Aurora A = target: T1, Aurora A (Homo sapiens, UniProt O14965); assay: Kinobeads assay, Aurora A; type: binding; settings: for pIC50: lysate of pervanadate-treated Jurkat cells, read-out: Inhibition values (IC50) Aur A
T1 construct: cell lysates from Jurkat cells (ATCC TIB-152) used; endogenous in cells; host or cells: Jurkat cells (ATCC TIB-152), treated with pervanadate
T1 sequence (O14965 1-403): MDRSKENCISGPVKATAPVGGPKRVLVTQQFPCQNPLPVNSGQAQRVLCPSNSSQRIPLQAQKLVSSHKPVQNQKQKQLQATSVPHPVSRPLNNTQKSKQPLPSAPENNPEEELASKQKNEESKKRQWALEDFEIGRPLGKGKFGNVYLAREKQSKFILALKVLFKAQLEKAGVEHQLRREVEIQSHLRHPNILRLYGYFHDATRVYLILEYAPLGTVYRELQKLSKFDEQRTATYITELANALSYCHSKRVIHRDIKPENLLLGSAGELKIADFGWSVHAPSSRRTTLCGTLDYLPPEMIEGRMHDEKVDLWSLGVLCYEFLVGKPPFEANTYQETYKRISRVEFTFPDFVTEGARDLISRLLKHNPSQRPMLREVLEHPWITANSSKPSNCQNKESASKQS
Method: (§1) The compounds of the present invention as described in the previous examples were tested in a Kinobeads™ assay as described for ZAP-70 (WO-A 2007/137867). Briefly, test compounds (at various concentrations) and the affinity matrix with the immobilized aminopyrido-pyrimidine ligand 24 were added to cell lysate aliquots and allowed to bind to the proteins in the lysate sample. After the incubation time the beads with captured proteins were separated from the lysate. Bound proteins were then eluted and the presence of JAK2 and JAK3 was detected and quantified using specific antibodies in a dot blot procedure and the Odyssey infrared detection system. Dose response curves for individual kinases were generated and IC50 values calculated. Kinobeads™ assays for ZAP-70 (WO-A 2007/137867) and for kinase selectivity profiling (WO-A 2006/134056) have been previously described.
(§2) The affinity matrix was washed two times with 15 mL of 1×DP buffer containing 0.2% NP40 (IGEPAL® CA-630, Sigma, #I3021) and then resuspended in 1×DP buffer containing 0.2% NP40 (3% beads slurry).
(§3) 5×DP buffer 250 mM Tris-HCl pH 7.4, 25% Glycerol, 7.5 mM MgCl2, 750 mM NaCl, 5 mM Na3VO4; filter the 5×DP buffer through a 0.22 μm filter and store in aliquots at −80° C. The 5×DP buffer is diluted with H2O to 1×DP buffer containing 1 mM DTT and 25 mM NaF.
(§4) Stock solutions of test compounds were prepared in DMSO. In a 96 well plate 30 μL solution of diluted test compounds at 5 mM in DMSO were prepared. Starting with this solution a 1:3 dilution series (9 steps) was prepared. For control experiments (no test compound) a buffer containing 2% DMSO was used.
(§5) Cell lysate (approximately 50 mg protein per plate) was thawed in a water bath at room temperature and then stored on ice. To the thawed cell lysate 1×DP 0.8% NP40 buffer containing protease inhibitors (1 tablet for 25 mL buffer; EDTA-free protease inhibitor cocktail; Roche Diagnostics 1873580) was added in order to reach a final protein concentration of 10 mg/mL total protein. The diluted cell lysate was stored on ice. Mixed Molt4/Ramos lysate was prepared by combining one volume of Molt4 lysate and two volumes of Ramos lysate (ratio 1:2).
To a 96 well filter plate (Multiscreen HTS, BV Filter Plates, Millipore #MSBVN1250) were added per well: 100 μL affinity matrix (3% beads slurry), 3 μL of compound solution, and 50 μL of diluted lysate. Plates were sealed and incubated for 3 hours in a cold room on a plate shaker (Heidolph tiramax 1000) at 750 rpm. Afterwards the plate was washed 3 times with 230 μL washing buffer (1×DP 0.4% NP40). The filter plate was placed on top of a collection 1 plate (Greiner bio-one, PP-microplate 96 well V-shape, 65120) and the beads were then eluted with 20 μL of sample buffer (100 mM Tris, pH 7.4, 4% SDS, 0.00025% bromophenol blue, 20% glycerol, 50 mM DTT). The eluate was frozen quickly at −80° C. and stored at −20° C.
The kinases in the eluates were detected and quantified by spotting on nitrocellulose membranes and using a first antibody directed against the kinase of interest and a fluorescently labelled secondary antibody (anti-rabbit IRDye™ antibody 800 (Licor, #926-32211). The Odyssey Infrared Imaging system from LI-COR Biosciences (Lincoln, Nebr., USA) was operated according to instructions provided by the manufacturer (Schutz-Geschwendener et al, 2004. Quantitative, two-color Western blot detection with infrared fluorescence. Published May 2004 by LI-COR Biosciences, www.licor.com).
After spotting of the eluates the nitrocellulose membrane (BioTrace NT; PALL, #BTNT30R) was first blocked by incubation with Odyssey blocking buffer (LICOR, 927-40000) for 1 hour at room temperature. Blocked membranes were then incubated for 16 hours at the temperature shown in Table 5 with the first antibody diluted in Odyssey blocking buffer (LICOR #927-40000). Afterwards the membrane was washed twice for 10 minutes with PBS buffer containing 0.2% Tween 20 at room temperature. […]

JAK2 = target: T2, JAK2 (Homo sapiens, UniProt O60674); assay: Kinobeads assay, JAK2; type: binding; settings: mixed Molt4/Ramos lysate, read-out: Inhibition values (IC50) JAK2
T2 construct: endogenous in cells; host or cells: mixed Molt4/Ramos lysate (1:2)
T2 sequence (O60674 whole entry): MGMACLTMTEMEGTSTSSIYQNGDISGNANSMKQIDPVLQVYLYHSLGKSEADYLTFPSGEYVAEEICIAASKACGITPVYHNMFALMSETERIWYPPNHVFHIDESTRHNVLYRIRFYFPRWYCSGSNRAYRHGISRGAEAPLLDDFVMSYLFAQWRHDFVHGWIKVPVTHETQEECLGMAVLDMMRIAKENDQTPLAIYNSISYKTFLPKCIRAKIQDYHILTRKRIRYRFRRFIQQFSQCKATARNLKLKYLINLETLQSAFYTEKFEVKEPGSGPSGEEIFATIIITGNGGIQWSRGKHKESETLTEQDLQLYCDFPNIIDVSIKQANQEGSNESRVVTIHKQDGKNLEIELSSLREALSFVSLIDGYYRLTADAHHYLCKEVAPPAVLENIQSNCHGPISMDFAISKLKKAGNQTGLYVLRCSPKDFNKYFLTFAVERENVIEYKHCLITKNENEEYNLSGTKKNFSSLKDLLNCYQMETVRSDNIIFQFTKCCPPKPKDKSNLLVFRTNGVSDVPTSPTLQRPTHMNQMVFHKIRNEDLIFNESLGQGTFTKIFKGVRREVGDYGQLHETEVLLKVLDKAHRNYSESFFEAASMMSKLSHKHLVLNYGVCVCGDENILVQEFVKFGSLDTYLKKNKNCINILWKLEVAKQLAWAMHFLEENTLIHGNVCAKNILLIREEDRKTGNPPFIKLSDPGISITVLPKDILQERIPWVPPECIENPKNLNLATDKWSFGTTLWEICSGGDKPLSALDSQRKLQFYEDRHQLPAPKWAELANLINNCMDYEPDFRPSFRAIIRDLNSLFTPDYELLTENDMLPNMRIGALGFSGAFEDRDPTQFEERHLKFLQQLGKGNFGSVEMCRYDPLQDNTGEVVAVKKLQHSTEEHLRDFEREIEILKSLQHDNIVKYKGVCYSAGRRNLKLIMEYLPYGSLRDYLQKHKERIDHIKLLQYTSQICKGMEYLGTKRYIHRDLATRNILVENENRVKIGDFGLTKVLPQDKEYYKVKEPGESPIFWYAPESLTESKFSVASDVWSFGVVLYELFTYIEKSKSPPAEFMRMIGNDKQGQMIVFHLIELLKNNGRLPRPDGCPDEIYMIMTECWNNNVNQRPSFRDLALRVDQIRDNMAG
Method: as §1, §2, §3, §4
Molt4 cells (ATCC catalogue number CRL-1582) and Ramos cells (ATCC catalogue number CRL-1596) were grown in 1 L Spinner flasks (Integra Biosciences, #182101) in suspension in RPMI 1640 medium (Invitrogen, #21875-034) supplemented with 10% Fetal Bovine Serum (Invitrogen) at a density between 0.15×106 and 1.2×10^6 cells/mL. Cells were harvested by centrifugation, washed once with 1×PBS buffer (Invitrogen, #14190-094) and cell pellets were frozen in liquid nitrogen and subsequently stored at −80° C. Cells were homogenized in a Potter S homogenizer in lysis buffer: 50 mM Tris-HCl, 0.8% NP40, 5% glycerol, 150 mM NaCl, 1.5 mM MgCl2, 25 mM NaF, 1 mM sodium vanadate, 1 mM DTT, pH 7.5. One complete EDTA-free tablet (protease inhibitor cocktail, Roche Diagnostics, 1873580) per 25 mL buffer was added. The material was dounced 10 times using a mechanized POTTER S, transferred to 50 mL falcon tubes, incubated for 30 minutes on ice and spun down for 10 minutes at 20,000 g at 4° C. (10,000 rpm in Sorvall SLA600, precooled). The supernatant was transferred to an ultracentrifuge (UZ)-polycarbonate tube (Beckmann, 355654) and spun for 1 hour at 100,000 g at 4° C. (33.500 rpm in Ti50.2, precooled). The supernatant was transferred again to a fresh 50 mL falcon tube, the protein concentration was determined by a Bradford assay (BioRad) and samples containing 50 mg of protein per aliquot were prepared. The samples were immediately used for experiments or frozen in liquid nitrogen and stored frozen at −80° C.
as §5
To a 96 well filter plate (Multiscreen HTS, BV Filter Plates, Millipore #MSBVN1250) were added per well: 100 μL affinity matrix (3% beads slurry), 3 μL of compound solution, and 50 μL of diluted lysate. […]

Compound	JAK3/AurA Fold Selectivity (Aurora A)	pIC50 (Aurora A)	pIC50 (JAK2)
Cn1cc(Nc2ncc3cnn(Cc4cccc(N5CC6CCC(C5)O6)c4)c3n2)cn1 [Example 26]	3-10 Fold	6.00 to 7.00	≤ 5.00
FC(F)Cn1cc(Nc2ncc3cnn(Cc4cccc(N5CCOCC5)c4)c3n2)cn1 [Example 23, N-(1-(2,2-Difluoroethyl)-1H-pyrazol-4-yl)-1-(3-morpholinobenzyl)-1H-pyrazolo[3,4-d]pyrimidin-6-amine]	3-10 Fold	6.00 to 7.00	≤ 5.00
NCCCn1cc(Nc2ncc3cnn(Cc4cccc(N5CCOCC5)c4)c3n2)cn1 [Example 34, N-(1-(3-Aminopropyl)-1H-pyrazol-4-yl)-1-(3-morpholinobenzyl)-1H-pyrazolo[3,4-d]pyrimidin-6-amine]	10-50 Fold	6.00 to 7.00	≤ 5.00
O=C(CCn1cc(Nc2ncc3cnn(Cc4cccc(N5CCOCC5)c4)c3n2)cn1)NC1CC1 [Example 35, N-Cyclopropyl-3-(4-((1-(3-morpholinobenzyl)-1H-pyrazolo[3,4-d]pyrimidin-6-yl)amino)-1H-pyrazol-1-yl)propanamide]	10-50 Fold	6.00 to 7.00	≤ 5.00
Cn1cc(Nc2ncc3cnn(Cc4cccc(N5CCOCC5=O)c4F)c3n2)cn1 [Example 40, 4-(2-Fluoro-3-((6-((1-methyl-1H-pyrazol-4-yl)amino)-1H-pyrazolo[3,4-d]pyrimidin-1-yl)methyl)phenyl)morpholin-3-one]	10-50 Fold	6.00 to 7.00	5.00 to 6.00
CN(C)CCCn1cc(Nc2ncc3cnn(Cc4cccc(N5CCOCC5=O)c4)c3n2)cn1 [Example 28, 4-(3-((6-((1-(3-(Dimethylamino)propyl)-1H-pyrazol-4-yl)amino)-1H-pyrazolo[3,4-d]pyrimidin-1-yl)methyl)phenyl)morpholin-3-one]	>50 Fold	6.00 to 7.00	≤ 5.00
OCCn1cc(Nc2ncc3cnn(Cc4cccc(N5CCOCC5)c4F)c3n2)cn1 [Example 39, 2-(4-((1-(2-Fluoro-3-morpholinobenzyl)-1H-pyrazolo[3,4-d]pyrimidin-6-yl)amino)-1H-pyrazol-1-yl)ethanol]	10-50 Fold	6.00 to 7.00	5.00 to 6.00
CNC(=O)CCn1cc(Nc2ncc3cnn(Cc4cccc(N5CCOCC5)c4)c3n2)cn1 [Example 24, N-Methyl-3-(4-((1-(3-morpholinobenzyl)-1H-pyrazolo[3,4-d]pyrimidin-6-yl)amino)-1H-pyrazol-1-yl)propanamide]	10-50 Fold	6.00 to 7.00	≤ 5.00
CN(C)CC1(Cn2cc(Nc3ncc4cnn(Cc5cccc(N6CCOCC6)c5)c4n3)cn2)COC1 [Example 31, N-(1-((3-((Dimethylamino)methyl)oxetan-3-yl)methyl)-1H-pyrazol-4-yl)-1-(3-morpholinobenzyl)-1H-pyrazolo[3,4-d]pyrimidin-6-amine]	3-10 Fold	6.00 to 7.00	≤ 5.00

More lines, now with the values ahead:

JAK3/AurA Fold Selectivity (Aurora A)	pIC50 (Aurora A)	pIC50 (JAK2)	Compound
3-10 Fold	> 7.00	5.00 to 6.00	O=C(Cn1cc(Nc2ncc3cnn(Cc4cc(F)cc(N5CCOCC5=O)c4)c3n2)cn1)N1CCNCC1 [Example 109, 4-(3-fluoro-5-((6-((1-(2-oxo-2-(piperazin-1-yl)ethyl)-1H-pyrazol-4-yl)amino)-1H-pyrazolo[3,4-d]pyrimidin-1-yl)methyl)phenyl)morpholin-3-one]
3-10 Fold	> 7.00	5.00 to 6.00	N#CCCn1cc(Nc2ncc3cnn(Cc4cc(F)cc(N5CCOCC5=O)c4)c3n2)cn1 [Example 107, 3-(4-((1-(3-fluoro-5-(3-oxomorpholino)benzyl)-1H-pyrazolo[3,4-d]pyrimidin-6-yl)amino)-1H-pyrazol-1-yl)propanenitrile]
10-50 Fold	6.00 to 7.00	5.00 to 6.00	O=C1CC(Cn2cc(Nc3ncc4cnn(Cc5cc(F)cc(N6CCOCC6=O)c5)c4n3)cn2)CN1 (stereo not drawn) [Example 105, 4-(3-fluoro-5-((6-((1-((5-oxopyrrolidin-3-yl)methyl)-1H-pyrazol-4-yl)amino)-1H-pyrazolo[3,4-d]pyrimidin-1-yl)methyl)phenyl)morpholin-3-one]
3-10 Fold	> 7.00	5.00 to 6.00	Cn1cc(Nc2ncc3cnn(Cc4cc(C(=O)N5CCOCC5)cc(F)c4F)c3n2)cn1 [Example 98, (3,4-difluoro-5-((6-((1-methyl-1H-pyrazol-4-yl)amino)-1H-pyrazolo[3,4-d]pyrimidin-1-yl)methyl)phenyl)(morpholino)methanone]
10-50 Fold	5.00 to 6.00	≤ 5.00	Cn1cc(Nc2ncc3cnn(Cc4cccc(-c5cn[nH]c5)c4)c3n2)cn1 [Example 118, 1-(3-(1H-pyrazol-4-yl)benzyl)-N-(1-methyl-1H-pyrazol-4-yl)-1H-pyrazolo[3,4-d]pyrimidin-6-amine]
3-10 Fold	> 7.00	5.00 to 6.00	Cn1cc(Nc2ncc3cnn(Cc4cccc(N5CCOCC5)c4Cl)c3n2)cn1 [Example 103, 1-(2-chloro-3-morpholinobenzyl)-N-(1-methyl-1H-pyrazol-4-yl)-1H-pyrazolo[3,4-d]pyrimidin-6-amine]

From patent publication US9040545B2, “Heterocyclyl pyrazolopyrimidine analogues as selective JAK inhibitors” (Cellzome Limited, priority 2010, dated 2015)
